# Assay results as given in patent US6121269A, “Reduction of hair growth” (priority 1999, dated 2000).
# Where two headings read alike, the source gives them in different places.
# Assays:
# human hair follicles = assay: Human Hair Follicle Growth Assay; type: cell-based
# Method: Human hair follicles in growth phase (anagen) were isolated from face-lift tissue under a dissecting scope using a scalpel and watchmakers forceps. The skin was sliced into thin strips exposing 2-3 rows of follicles that could readily be dissected. […] Hair follicles were videorecorded in the 24-well plates under the dissecting scope under a power of 20×. Hair follicle lengths were assessed using an image analysis software system (Computer Eyes and NIH Image). Typically, initial recordings were made on day 0 (day follicles were placed in culture), and on days 1, 4, and 7.
# The effect of five protein-tyrosine kinase inhibitors on human hair follicle growth was determined by exposing the isolated follicles to the enzyme inhibitors. The hair follicle lengths were determined before and after the inhibitor treatment.
# In another experiment isolated hair follicles were exposed to either 1 mM or 0.01 mM concentration of the protein-tyrosine kinase inhibitor erbstatin, and the hair growth rate was compared to control. Measurements were made at days 0, 1 and 4.
# protein-tyrosine kinase = assay: Protein-Tyrosine Kinase Assay (human skin/hair follicle extract, Calbiochem kit); type: biochemical; conditions: inhibitor 1 mM, human skin supernatant fraction
# Method: Protein-tyrosine kinase activity was measured in human skin samples rich in hair follicles using a commercially available assay kit (Calbiochem). Human skin obtained from a local plastic surgeon as a by-product of face-lift procedures was homogenized in four volumes of the extraction buffer containing 20 mM Tris-HCL, pH7.4, 50 mM NaCl, 1 mM EDTA, 1 mM EGTA, 5 mM mercaptoethanol. The samples were centrifuged for 10 min at 16,000×g to remove the membrane/organelle fractions. The supernatant fraction was used for the tyrosine kinase assay. Adding 25 ml of the 20× concentrated solution to 475 ml of deionized water and mixing made a working solution of plate wash buffer. The kinase buffer was prepared by adding 50 ul/ml of the 2 mM ATP stock solution to 1× sample buffer without 2-mercatoethanol. (90 ul of the kinase buffer/well).For the enzyme assay, 10 ul of each sample was added to a well. 10 ul of Abl standard, as positive controls, were added to a well. The kinase reaction was started by adding 90 ul of 1× kinase buffer/well and incubated at room temp for 30 minutes. The contents of each well was washed six times with 1× wash buffer, 100 ul of PY20 antibody diluted 1:200 with 1× Sample/kinase reaction buffer (without ATP) (15 ul to 3 ml) were added and the combination incubated for 30 minutes. The test solutions were washed with wash buffer, and 100 ul of substrate solution were added to each and incubated in the dark for 6 minutes. 100 ul of stop solution were added, and the UV absorbance read at 450 nm. The increase in UV absorbance at 450 nm provided a measure of the enzyme activity.
# The ability of protein-tyrosine kinase inhibitors to inhibit the skin/hair follicle enzyme activity was determined by measuring protein-tyrosine kinase activity in the presence and absence of the inhibitor. For enzyme inhibition studies, the inhibitor was added to the reaction mixture at a concentration of 1 mM following addition of the enzyme sample.
# [1] = isolated human follicles, inhibitor 500 μM
# [2] = isolated human follicles, inhibitor 500 μM, vs control
# [3] = isolated human follicles, inhibitor 250 μM
# [4] = isolated human follicles, inhibitor 50 μM
compound,measurement,setting,value
"N#CC(=Cc1ccc(O)cc1)C(N)=C(C#N)C#N [Tryphostin A48, 2-amino-4-(4'-hydroxyphenyl)-1,1,3-tricyanobuta-1,3-diene]",Hair Growth,human hair follicles; [1],0.1 mm
same,Post-treatment hair follicle length,human hair follicles; [1],3.3 ± .16 mm
same,inhibition at 500 µM,human hair follicles; [2],91%
COC(=O)/C=C/c1ccc(O)c(O)c1 [methyl caffeate],% Inhibition (protein-tyrosine kinase activity),protein-tyrosine kinase,100%
same,Hair Growth,human hair follicles; [1],0.6 mm
same,Post-treatment hair follicle length,human hair follicles; [1],4.1 ± .17 mm
same,inhibition at 500 µM,human hair follicles; [2],40%
"CO[C@H]1[C@@H](OC)C[C@H](C)[C@@H](OC)C2=CC(=O)C=C(NC(=O)/C(C)=C/C=C\[C@H](OC)[C@@H](OC(N)=O)/C(C)=C/[C@@H]1C)C2=O [Herbimycin, herbimycin A]",% Inhibition (protein-tyrosine kinase activity),protein-tyrosine kinase,37%
"COc1cc2ncnc(Nc3cccc(Cl)c3)c2cc1OC [Tryphostin AG 1478, 4-(3-Chloroanilino)-6,7-dimethoxyquinazoline]",inhibition at 250 µM,"human hair follicles; Homo sapiens, read-out: % Inhibition (hair growth)",40%
same,Hair Growth,human hair follicles; [3],0.6 mm
same,Post-treatment hair follicle length,human hair follicles; [3],3.8 ± .19 mm
N-acetyl-Asp-Tyr-(2-malonyl)-Val-Pro-Met-Leu-NH2,% Inhibition (protein-tyrosine kinase activity),protein-tyrosine kinase,83%
"N#CC(=Cc1ccc(O)c(O)c1)C(N)=S [Tryphostin A47, α-cyano-(3,4-dihydroxy)thiocinnamide]",% Inhibition (protein-tyrosine kinase activity),protein-tyrosine kinase,16%
"O=CN/C=C/c1cc(O)ccc1O [Erbstatin, erbstatin]",Posttreatment (Day-1) Growth,human hair follicles; 0.01 mM,0.1 mm
same,Posttreatment (Day-1) Length,human hair follicles; 0.01 mM,3.1 ± .20 mm
same,Posttreatment (Day-4) Growth,human hair follicles; 0.01 mM,0.8 mm
same,Posttreatment (Day-4) Length,human hair follicles; 0.01 mM,3.8 ± .29 mm
same,Posttreatment (Day-1) Growth,human hair follicles; 1 mM,0.0 mm
same,Posttreatment (Day-1) Length,human hair follicles; 1 mM,3.0 ± .17 mm
same,Posttreatment (Day-4) Growth,human hair follicles; 1 mM,0.3 mm
same,Posttreatment (Day-4) Length,human hair follicles; 1 mM,3.3 ± .15 mm
same,inhibition at 10 µM,"human hair follicles; Homo sapiens, 24 h, 0.01 mM, day 1, vs control, read-out: Posttreatment (Day-1) Inhibition",83%
same,inhibition at 1000 µM,"human hair follicles; Homo sapiens, 24 h, 1 mM, day 1, vs control, read-out: Posttreatment (Day-1) Inhibition",100%
same,inhibition at 10 µM,"human hair follicles; Homo sapiens, 96 h, 0.01 mM, day 4, vs control, read-out: Posttreatment (Day-4) Inhibition",11%
same,inhibition at 1000 µM,"human hair follicles; Homo sapiens, 96 h, 1 mM, day 4, vs control, read-out: Posttreatment (Day-4) Inhibition",67%
same,Hair Growth,human hair follicles; [1],0.3 mm
same,Post-treatment hair follicle length,human hair follicles; [1],3.9 ± .10 mm
same,inhibition at 500 µM,human hair follicles; [2],73%
"O=C(O)c1cc(N(Cc2ccccc2O)Cc2cc(O)ccc2O)ccc1O [Lavendustin A, lavendustin A]",% Inhibition (protein-tyrosine kinase activity),protein-tyrosine kinase,59%
same,Hair Growth,human hair follicles; [4],0 mm
same,Post-treatment hair follicle length,human hair follicles; [4],3.5 ± .12 mm
same,inhibition at 50 µM,"human hair follicles; isolated human follicles, inhibitor 50 μM, vs control",100%
"CC(=O)OCOC(c1ccc2ccccc2c1)P(=O)(OCOC(C)=O)OCOC(C)=O (stereo not drawn) [HNMPA(AM)3, hydroxy-2-naphthalenylmethylphosphonic acid tris acetoxymethyl ester]",% Inhibition (protein-tyrosine kinase activity),protein-tyrosine kinase,66%
